The subject of test [1] is Staphylococcus aureus 887. Briefly: Antibacterial activity in vitro (MIC) against Staphylococcus aureus 887. The test is classed as cell-based. The following applies: read-out: MIC S. aureus 887. How it is done:
(§1) The minimum inhibitory concentration in vitro (MIC in μg/ml) of a compound of formula I against Citrobacter freundii 1982 and Staphylococcus aureus 887 is measured and compiled in Table 2.

The subject of test [2] is Citrobacter freundii 1982. Briefly: Antibacterial activity in vitro (MIC) against Citrobacter freundii 1982. To be noted: read-out: MIC C. freundii 1982. Type of test: cell-based. How it is done:
as §1

Converted amounts (≈) assume the structure as drawn. Where a name gives a salt, the structure may show the parent alone.

A word on the MIC: it is the lowest concentration that inhibits growth of the organism.

Consider `O=C(O)C1=C(/C=C2\CCN(CC(F)(F)F)C2=O)C[C@@H]2CN[C@@H]3C(=O)N1[C@H]23` [Example 14, (E)-(1aS,3aR,6bR)-1-Oxo-5-[2-oxo-1-(2,2,2-trifluoro-ethyl)-pyrrolidin-3-ylidenemethyl]-1a,2,3,3a,4,6b-hexahydro-1H-2,6a-diaza-cyclobut[cd]indene-6-carboxylic acid trifluoroacetate (1:1)], for which the minimal inhibitory concentration (MIC) in test [1] came out at 16 µg/mL; in test [2] it was 8 µg/mL.

As to `O=C(O)C1=C(/C=C2\CCN(Cc3ccc([N+](=O)[O-])cc3)C2=O)C[C@@H]2CN[C@@H]3C(=O)N1[C@H]23` [Example 15, (E)-(1aS,3aR,6bR)-1-Oxo-5-[2-oxo-1-(4-nitrobenzyl)-pyrrolidin-3-ylidenemethyl]-1a,2,3,3a,4,6b-hexahydro-1H-2,6a-diaza-cyclobut[cd]indene-6-carboxylic acid trifluoroacetate (1:0.77)], the MIC is 8 µg/mL in test [1] and 32 µg/mL in test [2].

With `O=C(O)C1=C(/C=C2\CCN(Cc3cccs3)C2=O)C[C@@H]2CN[C@@H]3C(=O)N1[C@H]23` [Example 16, (E)-(1aS,3aR,6bR)-1-Oxo-5-[2-oxo-1-(thiophen-2-ylmethyl)-pyrrolidin-3-ylidenemethyl]-1a,2,3,3a,4,6b-hexahydro-1H-2,6a-diaza-cyclobut[cd]indene-6-carboxylic acid trifluoroacetate (1:0.75)], the MIC in test [1] turned out to be 8 µg/mL; in test [2], 16 µg/mL.

Turning to `NC(=O)c1ccc(NC(=O)N2C[C@H]3CC(/C=C4\CCN(CC(F)(F)F)C4=O)=C(C(=O)O)N4C(=O)[C@@H]2[C@@H]34)cc1` [Example 23, (E)-(1aS,3aR,6bR)-2-(4-Carbamoyl-phenylcarbamoyl)-1-oxo-5-[2-oxo-1-(2,2,2-trifluoroethyl)-pyrrolidin-3-ylidenemethyl]-1a,2,3,3a,4,6b-hexahydro-1H-2,6a-diaza-cyclobut[cd]indene-6-carboxylic acid sodium salt (1:1)], the minimum inhibitory concentration (MIC) in test [1] and in test [2] was 16 µg/mL each time.

Take `CC(=O)N1C[C@H]2CC(/C=C3\CCN(c4ccc(O)cc4)C3=O)=C(C(=O)O)N3C(=O)[C@@H]1[C@@H]23` [Example 24, (E)-(1aS,3aR,6bR)-2-Acetyl-1-oxo-5-[2-oxo-1-(4-hydroxyphenyl)-pyrrolidin-3-ylidenemethyl]-1a,2,3,3a,4,6b-hexahydro-1H-2,6a-diaza-cyclobut[cd]indene-6-carboxylic acid sodium salt (1:1)]: the MIC in test [1] and in test [2] was 1 µg/mL each time.

Turning to `CC(=O)N1C[C@H]2CC(/C=C3\CCN(CC(F)(F)F)C3=O)=C(C(=O)O)N3C(=O)[C@@H]1[C@@H]23` [Example 25, (E)-(1aS,3aR,6bR)-2-Acetyl-1-oxo-5-[2-oxo-1-(2,2,2-trifluoroethyl)-pyrrolidin-3-ylidenemethyl]-1a,2,3,3a,4,6b-hexahydro-1H-2,6a-diaza-cyclobut[cd]indene-6-carboxylic acid sodium salt (1:1)], the MIC in test [1] came to 4 µg/mL; in test [2], 1 µg/mL.

For `CC(=O)N1C[C@H]2CC(/C=C3\CCN(Cc4ccc([N+](=O)[O-])cc4)C3=O)=C(C(=O)O)N3C(=O)[C@@H]1[C@@H]23` [Example 26, (E)-(1aS,3aR,6bR)-2-Acetyl-1-oxo-5-[2-oxo-1-(4-nitro-benzyl)-pyrrolidin-3-ylidenemethyl]-1a,2,3,3a,4,6b-hexahydro-1H-2,6a-diaza-cyclobut[cd]indene-6-carboxylic acid sodium salt (1:1)], the minimum inhibitory concentration (MIC) in test [1] came out at 2 µg/mL; in test [2] it was 8 µg/mL.

As for `CC(=O)N1C[C@H]2CC(/C=C3\CCN(Cc4cccs4)C3=O)=C(C(=O)O)N3C(=O)[C@@H]1[C@@H]23` [Example 27, (E)-(1aS,3aR,6bR)-2-Acetyl-1-oxo-5-[2-oxo-1-(thiophen-2-ylmethyl)-pyrrolidin-3-ylidenemethyl]-1a,2,3,3a,4,6b-hexahydro-1H-2,6a-diaza-cyclobut[cd]indene-6-carboxylic acid sodium salt (1:1)], the minimal inhibitory concentration (MIC) in test [1] was 2 µg/mL; in test [2], 4 µg/mL.

Take `CC(=O)N1C[C@H]2CC(/C=C3\CCN(CC(C)C)C3=O)=C(C(=O)O)N3C(=O)[C@@H]1[C@@H]23` [Example 28, (E)-(1aS,3aR,6bR)-2-Acetyl-1-oxo-5-[2-oxo-1-isobutyl-pyrrolidin-3-ylidenemethyl]-1a,2,3,3a,4,6b-hexahydro-1H-2,6a-diaza-cyclobut[cd]indene-6-carboxylic acid sodium salt (1:1)]: the MIC amounted to 8 µg/mL in test [1] and 2 µg/mL in test [2].

In the case of `CC(=O)N1C[C@H]2CC(/C=C3\CCN(C4CC4)C3=O)=C(C(=O)O)N3C(=O)[C@@H]1[C@@H]23` [Example 29, (E)-(1aS,3aR,6bR)-2-Acetyl-1-oxo-5-[1-cyclopropyl-2-oxo-pyrrolidin-3-ylidenemethyl]-1a,2,3,3a,4,6b-hexahydro-1H-2,6a-diaza-cyclobut[cd]indene-6-carboxylic acid sodium salt (1:1)], the MIC amounted to 16 µg/mL in test [1] and 1 µg/mL in test [2].

As for `CC(=O)N1C[C@H]2CC(/C=C3\CCN(c4cccc([N+](=O)[O-])c4)C3=O)=C(C(=O)O)N3C(=O)[C@@H]1[C@@H]23` [Example 30, (E)-(1aS,3aR,6bR)-2-Acetyl-1-oxo-5-[1-(3-nitrophenyl)-2-oxo-pyrrolidin-3-ylidenemethyl]-1a,2,3,3a,4,6b-hexahydro-1H-2,6a-diaza-cyclobut[cd]indene-6-carboxylic acid sodium salt (1:1)], the MIC was determined as 1 µg/mL in test [1] and 4 µg/mL in test [2].

In the case of `CC(=O)N1C[C@H]2CC(/C=C3\CCN(c4ccccc4)C3=O)=C(C(=O)O)N3C(=O)[C@@H]1[C@@H]23` [Example 31, (E)-(1aS,3aR,6bR)-2-Acetyl-1-oxo-5-[2-oxo-1-phenyl-pyrrolidin-3-ylidenemethyl]-1a,2,3,3a,4,6b-hexahydro-1H-2,6a-diaza-cyclobut[cd]indene-6-carboxylic acid sodium salt (1:1)], the MIC in test [1] worked out at 2 µg/mL; in test [2] it was 8 µg/mL.

In the case of `CCOC(=O)N1CCC(N2CC/C(=C\C3=C(C(=O)O)N4C(=O)[C@@H]5[C@H]4[C@H](C3)CN5C(C)=O)C2=O)CC1` [Example 32, (E)-(1aS,3aR,6bR)-2-Acetyl-1-oxo-5-[1-(1-ethoxycarbonyl-piperidin-4-yl)-2-oxo-pyrrolidin-3-ylidenemethyl]-1a,2,3,3a,4,6b-hexahydro-1H-2,6a-diaza-cyclobut[cd]indene-6-carboxylic acid sodium salt (1:1)], the values for the MIC in test [1] and in test [2] were 8 µg/mL and 62 µg/mL, respectively.

For `CC(=O)N1C[C@H]2CC(/C=C3\CCN(c4cccnc4)C3=O)=C(C(=O)O)N3C(=O)[C@@H]1[C@@H]23` [Example 33, (E)-(1aS,3aR,6bR)-2-Acetyl-1-oxo-5-[2-oxo-1-pyridin-3-yl-pyrrolidin-3-ylidenemethyl]-1a,2,3,3a,4,6b-hexahydro-1H-2,6a-diaza-cyclobut[cd]indene-6-carboxylic acid sodium salt (1:1)], the MIC in test [1] turned out to be 2 µg/mL; in test [2], 1 µg/mL.

`O=C(O)C1=C(/C=C2\CCN(c3cccc([N+](=O)[O-])c3)C2=O)C[C@@H]2CN(C(=O)C(F)(F)F)[C@@H]3C(=O)N1[C@H]23` [Example 34, (E)-(1aS,3aR,6bR)-1-Oxo-5-[2-oxo-1-(3-nitro-phenyl)-pyrrolidin-3-ylidenemethyl]-2-trifluoroacetyl-1a,2,3,3a,4,6b-hexahydro-1H-2,6a-diaza-cyclobut[cd]indene-6-carboxylic acid sodium salt (1:1)]: the MIC in test [1] was 4 µg/mL; in test [2] it was 8 µg/mL.

For `O=C(O)C1=C(/C=C2\CCN(Cc3cccs3)C2=O)C[C@@H]2CN(C(=O)C(F)(F)F)[C@@H]3C(=O)N1[C@H]23` [Example 35, (E)-(1aS,3aR,6bR)-1-Oxo-5-[2-oxo-1-(thiophen-2-yl-methyl)-pyrrolidin-3-ylidenemethyl]-2-trifluoroacetyl-1a,2,3,3a,4,6b-hexahydro-1H-2,6a-diaza-cyclobut[cd]indene-6-carboxylic acid sodium salt (1:1)], the MIC in test [1] stood at 4 µg/mL; in test [2], 32 µg/mL.

Regarding `O=C(O)C1=C(/C=C2\CCN(C3CC3)C2=O)C[C@@H]2CN(C(=O)C(F)(F)F)[C@@H]3C(=O)N1[C@H]23` [Example 36, (E)-(1aS,3aR,6bR)-1-Oxo-5-[2-oxo-1-cyclopropyl-pyrrolidin-3-ylidenemethyl]-2-trifluoroacetyl-1a,2,3,3a,4,6b-hexahydro-1H-2,6a-diaza-cyclobut[cd]indene-6-carboxylic acid sodium salt (1:1)], the results for the MIC in test [1] and in test [2] were 4 µg/mL and 8 µg/mL, respectively.

With `O=C(O)C1=C(/C=C2\CCN(c3ccccc3)C2=O)C[C@@H]2CN(C(=O)C(F)(F)F)[C@@H]3C(=O)N1[C@H]23` [Example 37, (E)-(1aS,3aR,6bR)-1-Oxo-5-[2-oxo-1-phenyl-pyrrolidin-3-ylidenemethyl]-2-trifluoroacetyl-1a,2,3,3a,4,6b-hexahydro-1H-2,6a-diaza-cyclobut[cd]indene-6-carboxylic acid sodium salt (1:1)], the figures for the MIC in test [1] and in test [2] were 4 µg/mL and 64 µg/mL, respectively.

In the case of `O=C(O)C1=C(/C=C2\CCN(c3cccnc3)C2=O)C[C@@H]2CN(C(=O)C(F)(F)F)[C@@H]3C(=O)N1[C@H]23` [Example 38, (E)-(1aS,3aR,6bR)-1-Oxo-5-[2-oxo-1-pyridin-3-yl-pyrrolidin-3-ylidenemethyl]-2-trifluoroacetyl-1a,2,3,3a,4,6b-hexahydro-1H-2,6a-diaza-cyclobut[cd]indene-6-carboxylic acid sodium salt (1:1)], the figures for the MIC in test [1] and in test [2] were 4 µg/mL and 16 µg/mL, respectively.

For the molecule `CC(=O)N1C[C@H]2CC(/C=C3\CCN(c4ccc[n+](Cc5ccccc5)c4)C3=O)=C(C(=O)[O-])N3C(=O)[C@@H]1[C@@H]23` [Example 39, (E)-(1aS,3aR,6bR)-2-Acetyl-5-[1-(1-benzyl-pyridin-1-ium-3-yl)-2-oxo-pyrrolidin-3-ylidenemethyl]-1-oxo-1a,2,3,3a,4,6b-hexahydro-1H-2,6a-diaza-cyclobut[cd]indene-6-carboxylate acid], the MIC was 2 µg/mL (≈ 4.01 µM) in test [1] and 4 µg/mL (≈ 8.02 µM) in test [2].

Values taken from US6218379A, “Tricyclic carbacephems” (Hoffmann-la Roche Inc., priority 1996, dated 2001).
